Structures can show the parent of a compound that is named as a salt.
Target: mutant form of rice EPSPS
Test: EPSPS enzyme assay, inhibition of purified mutant rice EPSPS by glyphosate
Format: biochemical
From the text: The resultant products are gel purified and placed into a tube in eqi-molar concentrations to serve as a template for another round of PCRs with the rice 5′ and 3′ oligos. The resultant products are cloned into pCRBlunt II using Invitrogens Zero Blunt TOPO kit. It is confirmed that the DNA sequence of the insert and its predicted open reading frame correspond to that of the predicted mature chloroplastic rice EPSPS protein (with the exception of the presence of an initiating Met) and also that the desired changes (the specific mutation of T to I and P to S at specific positions in the EPSPS sequence) are encoded. The thus cloned and verified rice epsps sequence is excised using Nde 1 and Xho 1 and the purified fragment cloned into pET24a (Novagen) digested similarly. The recombinant clones are introduced into BL21 (DE3), a codon optimised RP strain of E.coli supplied by Strategene. The EPSPS protein is expressed in this strain following addition of 1 mM IPTG to the fermenter medium (LB supplemented with 100 ug/ml Kanamycin). […]

## O=C(O)CNCP(=O)(O)O [potassium salt of glyphosate]
At 40 μM PEP, 2 mM shikimate-3-Pi
  IC50: ~600 µM
Mutant EPSPS, read-out: estimated Ki value
  Ki: ~200 µM

From patent publication US20030079246A1, “Herbicide resistant plants” (priority 1999, published 2003)
